{
  "source": "patent US20160058829A1",
  "about": "“ANTI-FIBROTIC PEPTIDES AND THEIR USE IN METHODS FOR TREATING DISEASES AND DISORDERS CHARACTERIZED BY FIBROSIS” (Thrasos Innovation, Inc., priority 2011, published 2016)",
  "key": {"[1]": {"test_system": "human proximal tubule epithelial cells (HK2)", "test": "D-glucose-induced EMT assay, E-cadherin immunofluorescence with colorimetric image analysis", "assay_type": "cell-based", "settings": "D-glucose 50 mM", "procedure": "Chronic hyperglycemia is a known cause of renal fibrosis in type 2 diabetes. The assay in this example induces the transdifferentiation from the epithelial to the mesenchymal phenotype (EMT) in human proximal tubule epithelial cells (HK2) by exposing them to high levels of D-glucose (100 mM and 200 mM). […] Exposure to 100 mM D-glucose results in the loss of E-cadherine expression as evidenced by the loss of the fluorescene signal. Using this assay test compounds are evaluated based on their ability to inhibit the EMT processes in the presence of high levels of D-glucose. FIGS. 4-16 are fluorescence micrographs of HK2 cells exposed to 100 mM D-glucose and 100 uM of SEQ IS NOs 1 through 11, respectively. Note that all but SEQ ID NOs 10 and 11 were able to preserve the epithelial phenotype (i.e., inhibit the EMT).\nResults are provided in the context of FIG. 1 and Table 3, below. In Table 3 below, compound response is scored using image analysis as described herein in the method of Methods and Materials, part C. A 0% response corresponds to the signal for 100 mM (or 200 mM) D-glucose (untreated) while the 100% response corresponds to the signal for media in the absence of D-glucose.\nIt has been shown that transdifferentiation of proximal tubular epithelial cells is a critical step in the development of renal fibrosis, and that this is associated with a loss of the epithelial phenotypic marker, E-cadherin expression. This provides the basis for the development of a cell-based screening assay in which high concentrations of D-Glucose (50-100 mM) are used to induce a loss of E-cadherin expression in human renal proximal tubular epithelial (HK-2) cells, and compounds are tested for their ability to reverse the loss E-cadherin expression.\nMaterials: • Human proximal tubular epithelial cells, HK-2 (ATCC #CRL-2190) • Serum-free keratinocyte medium (GIBCO #17005-042, K-SFM) • Epidermal growth factor (EGF: 5 ng/mL) • Bovine pituitary extract (BPE: 40 ug/mL) • Primary antibody, Mouse IgG anti-E-cadherin (R&D Systems # MAB1838) • BSA [Sigma #A7030] • secondary antibody, FITC-conjugated Goat anti-mouse IgG (Fab2) fragment (Sigma-Aldrich # F-2653) • Paraformaldehyde (10%)) • Triton X-100 (Sigma # T-9284) • PBS (Fisher Scientific #BP399-1) • D-PBS (Invitrogen #14190-144) • Polypropylene tips (Axygen, Inc. 0.5-10 uL, cat # T-300-L-R; 1-200 uL, Cat # T-200-L-R; 1-1000 uL, Cat # T-1000-C-L-R) • 50 mL polypropylene culture tubes (Fisher Scientific, cat #06-443-18) • 24-well Coster cell culture plates (Fisher Scientific #07-200-84)\nReagents & Test Samples: • Positive control: BMP-7, assayed at concentrations 0.1 and 1 ug/mL • Test compounds (peptides): each tested at final concentrations 100 uM and 200 uM.\nAssay Procedure for Cell Culture Assay: • Run assay in 24-well culture plates. • Seed HK-2 cells at a density between 25,000 and 30,000 cells per well in lmL K-SFM medium with supplements added (growth medium) • Incubate HK-2 cells for 24 hours at 37° C., and let cells attach the plate • Next Day afternoon, change the medium with K-SFM medium with no added supplements (serum free medium) in all wells except the first two control wells. • Continue incubating HK-2 cells overnight at 37° C. • Next Day, aspirate the medium from all wells. Incubate the cells in growth medium (first two control wells) or expose them to test compounds for 2 hours at 37° C. Final concentrations of each Test compound are 100 and 200 uM. BMP-7 serves as a positive control in the assay. • After incubation, add D-glucose to all wells except first two control wells. Final concentrations of D-Glucose are 50 and 100 mM. • Incubate HK-2 cells for 60 hours at 37° C. • Aspirate the medium from all wells. To the wells, add pre-warmed growth medium or serum free medium containing D-glucose alone or D-glucose and test compound or D-glucose and BMP-7. Final concentrations of D-Glucose and Test compound are the same as above. • Continue incubating HK-2 cells for 24 hours at 37° C. […]"}, "Smad 1/5/8": {"test_system": "Smad 1/5/8", "test": "Smad 1/5/8 phosphorylation and nuclear translocation in HK-2 cells", "assay_type": "cell-based, human", "procedure": "Human renal proximal tubule epithelial cells (HK-2) were incubated in the presence (right panel) and absence (left panel) of THR-123. The cells were washed, and then incubated with the primary antibody against phospho Smad 1/5/8, followed by immunostaining with a fluorescently labeled secondary antibody. The significance of pSmad 1/5/8 in renal fibrosis is tied to BMP7 suppression of TGF-β-dependent profibrotic pathways, which are central to renal fibrotic injury. Specifically, BMP7 suppression of such TGF-β-dependent profibrotic pathways is mediated in part by the activation of downstream BMP target proteins, Smad 1, 5, and 8. (Manson S R et al., J. Urol. 85:2523-30, 2011)."}, "[2]": {"test_system": "cisplatin-induced nephrotoxicity in rats", "test": "Cisplatin-induced nephrotoxicity in rats", "assay_type": "in vivo", "settings": "cisplatin plus THR-123 versus cisplatin alone", "source_text": "FIG. 38 Tumor necrosis factor-a (TNF-a) production via p38 mitogen-activated protein kinase (MAPK) is one of the pivotal mechanisms in the development of AKI induced by a nephrotoxic agent, cisplatin (Ramesh, G and Reeves, W B. Am J Physiol Renal Physiol 289:F166-F174, 2005). Therefore THR-123 was further examined to determine if the compound is capable of inhibiting cisplatin-induced nephrotoxicity in animals. The upper right and left panels in the figure show Kidney sections immunostained for ICAM-1 expression and the lower right and left panels show immunostaining for the presence of macrophages. The kidney sections in the left column were treated with cisplatin alone and the right column panels were treated with cisplatin and THR-123. Arrows in the upper panel indicate ICAM-1 expression which was reduced by THR-123. Arrows in the lower panel indicate infiltration of macrophages as detected by Mac CD-68 staining, which was reduced by THR-123."}, "[3]": {"test": "In vitro stability in rat blood, plasma and PBS-mannitol buffer (LC-MS-MS)", "assay_type": "in vitro ADME", "settings": "0.1 mg/mL, 37° C.", "procedure": "FIG. 46 In vitro stability of THR-123. THR-123 was spiked into freshly harvested rat blood (male Sprague-Dawley, 0.35 kg BW) and plasma, and PBS-mannitol buffer solution at a final concentration of 0.1 mg/mL. Blood, plasma and buffer master tubes were incubated at 37° C. for up to 6 h and duplicate samples of 500 μl (blood) and 250 μl (plasma and […]) were collected for analysis at 0, 7.5, 15, 30, 60, 120, 240 and 360 min. Samples were analyzed for THR-123 using an LC-MS-MS method having a limit of detection of 1 μg/ml.\nThe stability of THR-123 in whole blood and plasma was tested in vitro. In PBS-mannitol buffer, THR-123 was stable for over 400 minutes (FIG. 46)."}},
  "note": "Positions of bridges follow the written chain, without caps; N, C: chain ends.",
  "data": [
    {"substance": "(H)-CYFDDSSNVLCKKYRS-(OH) (H-CYFDDSSNVLCKKYRS-OH; disulfide 1-11; SMILES CC(C)C[C@@H]1NC(=O)[C@H](C(C)C)NC(=O)[C@H](CC(N)=O)NC(=O)[C@H](CO)NC(=O)[C@H](CO)NC(=O)[C@H](CC(=O)O)NC(=O)[C@H](CC(=O)O)NC(=O)[C@H](Cc2ccccc2)NC(=O)[C@H](Cc2ccc(O)cc2)NC(=O)[C@@H](N)CSSC[C@@H](C(=O)N[C@@H](CCCCN)C(=O)N[C@@H](CCCCN)C(=O)N[C@@H](Cc2ccc(O)cc2)C(=O)N[C@@H](CCCNC(=N)N)C(=O)N[C@@H](CO)C(=O)O)NC1=O) [SEQ ID NO: 1]", "values": [
      {"measurement": "prevention of D-glucose induced loss of epithelial phenotype (E-cadherin expression)", "setting": "[1]", "result": "effectively prevents"},
      {"measurement": "Smad 1/5/8 phosphorylation and nuclear translocation", "setting": "Smad 1/5/8", "result": "induces Smad 1/5/8 phosphorylation and nuclear translocation"},
      {"measurement": "ICAM-1 expression in kidney sections", "setting": "[2]", "result": "reduced"},
      {"measurement": "infiltration of macrophages (Mac CD-68 staining)", "setting": "[2]", "result": "reduced"},
      {"measurement": "half-life in rat plasma", "setting": "[3]", "result": 5.97, "unit": "h"},
      {"measurement": "half-life in rat whole blood", "setting": "[3]", "result": 1.17, "unit": "h"}
    ]}
  ]
}
